The target of the assay is T1, IGFR kinase (Homo sapiens, UniProt P08069).
T1 construct: purchased Millipore
Briefly: Enzyme assay (c), IGFR kinase, Caliper LabChip. The format is biochemical. As to conditions: 30 nM IGFR kinase, 6 uM ATP, 3 uM peptide mix; read-out: IGFR IC50. As for the experimental part:
For Echo dosing the solvent was 100% DMSO. A master plate was prepared with 40 ul of 10 mM stock solution of the test compound in DMSO in quadrant 1 of a Labcyte 384 well plate. A 1 in 100 dilution was made from quadrant 1 into quadrant 2 by removing 0.4 ul and adding it to 39.6 ul of DMSO. Subsequent 1 in 100 dilutions were made into quadrant 3 from quadrant 2 and quadrant 4 from quadrant 3.
Multiple 2.5 nl droplets were dispensed from each quadrant of the master plate to generate the dose range that was required in the test. The dose range most commonly used was as follows: 100 uM, 30 uM, 10 uM, 3 uM, 1 uM, 0.3 uM, 0.1 uM, 0.03 uM, 0.01 uM, 0.003 uM, 0.001 uM, 0.0001 uM. Each well was backfilled with dimethyl sulfoxide (DMSO) to a total volume of 120 nl, such that when the enzyme and substrate mix was added the final DMSO concentration was 1%.
DMSO was added to max control wells as 120 nl, minimum control wells were treated with 120 nl of compound at a concentration that inhibited the enzyme activity 100%.
Integration of the substrate and product peaks was carried out using Caliper LabChip software and IC50 curves were calculated using Origin™ software.

T1 sequence (P08069 31-1367): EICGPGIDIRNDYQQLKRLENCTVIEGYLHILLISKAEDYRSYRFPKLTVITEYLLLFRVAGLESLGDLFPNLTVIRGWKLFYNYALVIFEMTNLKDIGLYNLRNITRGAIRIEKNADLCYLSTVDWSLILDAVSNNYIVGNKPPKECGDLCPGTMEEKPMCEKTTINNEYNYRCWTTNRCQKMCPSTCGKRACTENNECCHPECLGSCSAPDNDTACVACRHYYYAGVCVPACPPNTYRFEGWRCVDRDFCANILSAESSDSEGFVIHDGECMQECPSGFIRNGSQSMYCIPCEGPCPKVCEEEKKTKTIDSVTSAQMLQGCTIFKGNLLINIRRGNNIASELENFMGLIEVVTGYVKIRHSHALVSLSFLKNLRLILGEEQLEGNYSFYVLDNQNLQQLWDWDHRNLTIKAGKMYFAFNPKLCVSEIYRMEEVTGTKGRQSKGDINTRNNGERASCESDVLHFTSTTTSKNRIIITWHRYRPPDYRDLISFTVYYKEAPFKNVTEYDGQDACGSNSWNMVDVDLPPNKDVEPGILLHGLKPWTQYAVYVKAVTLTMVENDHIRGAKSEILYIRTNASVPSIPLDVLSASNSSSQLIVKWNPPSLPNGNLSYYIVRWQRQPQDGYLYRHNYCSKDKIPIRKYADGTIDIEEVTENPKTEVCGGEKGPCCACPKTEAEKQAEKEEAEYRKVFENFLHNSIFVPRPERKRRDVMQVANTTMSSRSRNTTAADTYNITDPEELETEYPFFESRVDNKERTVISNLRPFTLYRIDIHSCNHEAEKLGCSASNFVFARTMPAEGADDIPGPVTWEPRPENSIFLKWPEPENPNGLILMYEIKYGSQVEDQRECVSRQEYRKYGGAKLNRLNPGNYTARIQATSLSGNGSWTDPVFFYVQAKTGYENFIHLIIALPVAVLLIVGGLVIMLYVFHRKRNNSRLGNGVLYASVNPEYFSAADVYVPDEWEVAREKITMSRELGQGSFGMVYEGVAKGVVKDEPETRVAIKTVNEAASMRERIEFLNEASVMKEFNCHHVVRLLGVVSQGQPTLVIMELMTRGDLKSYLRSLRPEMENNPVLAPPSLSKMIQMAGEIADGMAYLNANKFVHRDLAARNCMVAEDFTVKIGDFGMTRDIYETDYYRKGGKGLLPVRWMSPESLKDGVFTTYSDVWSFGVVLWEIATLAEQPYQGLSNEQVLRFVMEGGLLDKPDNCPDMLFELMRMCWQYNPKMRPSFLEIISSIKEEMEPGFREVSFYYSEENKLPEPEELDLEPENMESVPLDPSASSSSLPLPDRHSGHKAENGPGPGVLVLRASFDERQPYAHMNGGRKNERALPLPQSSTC

Turning to `COc1cc(CN2CCCOCC2)ccc1Nc1ncc(Cl)c(-c2cnc3ccccn23)n1` [Example 21.14, 5-chloro-4-imidazo[1,2-a]pyridin-3-yl-N-[2-methoxy-4-(1,4-oxazepan-4-ylmethyl)phenyl]pyrimidin-2-amine], the IC50 was 28 nM.

Turning to `COc1cc(N2CCN(C(C)=O)C[C@@H](O)C2)ccc1Nc1ncc(Cl)c(-c2cnc3ccccn23)n1` [Example 3.40, 1-[(6S)-4-[4-[(5-chloro-4-imidazo[1,2-a]pyridin-3-yl-pyrimidin-2-yl)amino]-3-methoxy-phenyl]-6-hydroxy-1,4-diazepan-1-yl]ethanone], the IC50 worked out at 24 nM.

Take `COc1cc(C2CCN(C(C)=O)CC2)ccc1Nc1ncc(C)c(-c2cnc3ccccn23)n1` [Example 99, 1-[4-[4-[(4-imidazo[1,2-a]pyridin-3-yl-5-methyl-pyrimidin-2-yl)amino]-3-methoxy-phenyl]-1-piperidyl]ethanone]: the IC50 is 24 nM.

For the molecule `COc1cc(N2CCN(C(C)=O)CC2)ccc1Nc1ncc(C#N)c(-c2cnc3ccccn23)n1` [Example 118, 2-[[4-(4-acetylpiperazin-1-yl)-2-methoxy-phenyl]amino]-4-imidazo[1,2-a]pyridin-3-yl-pyrimidine-5-carbonitrile], the IC50 was 92 nM.

Regarding `COc1cc(N2CCN(C(=O)C3CCC(=O)N3)CC2)ccc1Nc1ncc(Cl)c(-c2cnc3ccccn23)n1` (centres unmarked) [Example 25.1, 5-[4-[4-[(5-chloro-4-imidazo[1,2-a]pyridin-3-yl-pyrimidin-2-yl)amino]-3-methoxy-phenyl]piperazine-1-carbonyl]pyrrolidin-2-one], the IC50 was found to be 9 nM.

For the molecule `COc1cc(N(C)CC(=O)N2CCNCC2)ccc1Nc1ncc(Cl)c(-c2cnc3c(F)cccn23)n1` [Example 227, 2-[4-[[5-chloro-4-(8-fluoroimidazo[1,2-a]pyridin-3-yl)pyrimidin-2-yl]amino]-3-methoxy-N-methyl-anilino]-1-piperazin-1-yl-ethanone], the IC50 amounted to 48 nM.

As to `COc1cc(N2CCN(C[C@H](C)O)CC2)ccc1Nc1ncc(C)c(-c2cnc3ccccn23)n1` [Example 104, (2S)-1-[4-[4-[(4-imidazo[1,2-a]pyridin-3-yl-5-methyl-pyrimidin-2-yl)amino]-3-methoxy-phenyl]piperazin-1-yl]propan-2-ol], the IC50 came to 29 nM.

As for `CC(=O)N1CCN(c2ccc(Nc3ncc(Cl)c(-c4cnc5ccccn45)n3)c(C)c2)CC1` [Example 3.30, 1-[4-[4-[(5-chloro-4-imidazo[1,2-a]pyridin-3-yl-pyrimidin-2-yl)amino]-3-methyl-phenyl]piperazin-1-yl]ethanone], the half-maximal inhibitory concentration (IC50) turned out to be 12 nM.

On to `COc1cc(OC2CN(CCO)C2)ccc1Nc1ncc(Cl)c(-c2cnc3ccccn23)n1` [Example 64, 2-[3-[4-[(5-chloro-4-imidazo[1,2-a]pyridin-3-yl-pyrimidin-2-yl)amino]-3-methoxy-phenoxy]azetidin-1-yl]ethanol], for which the IC50 came to 19 nM.

As to `CNCc1ccn2c(-c3nc(Nc4ccc(N5CCN(C(C)=O)CC5)cc4OC)ncc3Cl)cnc2c1` [Example 186, 1-[4-[4-[[5-chloro-4-[7-(methylaminomethyl)imidazo[1,2-a]pyridin-3-yl]pyrimidin-2-yl]amino]-3-methoxy-phenyl]piperazin-1-yl]ethanone], the IC50 turned out to be 36 nM.

As to `COc1cc(N2CC[C@H](O)C2)ccc1Nc1ncc(Cl)c(-c2cnc3ccccn23)n1` [Example 3.47, (3S)-1-[4-[(5-chloro-4-imidazo[1,2-a]pyridin-3-yl-pyrimidin-2-yl)amino]-3-methoxy-phenyl]pyrrolidin-3-ol], the IC50 turned out to be 32 nM.

As for `COc1cc(N2CCN(C(C)(C)CO)CC2)ccc1Nc1ncc(F)c(-c2cnc3ccccn23)n1` [Example 228, 2-[4-[4-[(5-fluoro-4-imidazo[1,2-a]pyridin-3-yl-pyrimidin-2-yl)amino]-3-methoxy-phenyl]piperazin-1-yl]-2-methyl-propan-1-ol], the IC50 worked out at 24 nM.

For `COc1cc(N2CCN(CCO)CC2)ccc1Nc1ncc(Cl)c(-c2cnc3c(F)cccn23)n1` [Example 194, 2-[4-[4-[[5-chloro-4-(8-fluoroimidazo[1,2-a]pyridin-3-yl)pyrimidin-2-yl]amino]-3-methoxy-phenyl]piperazin-1-yl]ethanol], the IC50 was 15 nM.

As for `COc1cc(C2CCNCC2)ccc1Nc1ncc(F)c(-c2cnc3ccccn23)n1` [Example 86, 5-fluoro-4-imidazo[1,2-a]pyridin-3-yl-N-[2-methoxy-4-(4-piperidyl)phenyl]pyrimidin-2-amine], the IC50 was found to be 12 nM.

With `COc1cc(C2CNC(=O)C2)ccc1Nc1ncc(Cl)c(-c2cnc3ccccn23)n1` (centres unmarked) [Example 3.24, 4-[4-[(5-chloro-4-imidazo[1,2-a]pyridin-3-yl-pyrimidin-2-yl)amino]-3-methoxy-phenyl]pyrrolidin-2-one], the IC50 worked out at 8 nM.

In the case of `COc1ccc(N2CC[C@H](O)C2)cc1Nc1ncc(Cl)c(-c2cnc3ccccn23)n1` [Example 3.5, (3S)-1-[3-[(5-chloro-4-imidazo[1,2-a]pyridin-3-yl-pyrimidin-2-yl)amino]-4-methoxy-phenyl]pyrrolidin-3-ol], the IC50 is 41 nM.

Take `COc1cc(N2CC3CN(C(=O)CO)CC(C2)O3)ccc1Nc1ncc(Cl)c(-c2cnc3c(F)cccn23)n1` [Example 212, 1-[7-[4-[[5-chloro-4-(8-fluoroimidazo[1,2-a]pyridin-3-yl)pyrimidin-2-yl]amino]-3-methoxy-phenyl]-9-oxa-3,7-diazabicyclo[3.3.1]nonan-3-yl]-2-hydroxy-ethanone]: the IC50 stood at 19 nM.

Regarding `COc1cc(N2CCN(C(=O)[C@@H](O)CO)CC2)ccc1Nc1ncc(Cl)c(-c2cnc3ccccn23)n1` [Example 56, (2S)-1-[4-[4-[(5-chloro-4-imidazo[1,2-a]pyridin-3-yl-pyrimidin-2-yl)amino]-3-methoxy-phenyl]piperazin-1-yl]-2,3-dihydroxy-propan-1-one], the IC50 was 6 nM.

Consider `COc1cc(C2CCCCN2C(C)=O)ccc1Nc1ncc(Cl)c(-c2cnc3ccccn23)n1` (centres unmarked) [Example 3.25, 1-[2-[4-[(5-chloro-4-imidazo[1,2-a]pyridin-3-yl-pyrimidin-2-yl)amino]-3-methoxy-phenyl]-1-piperidyl]ethanone], for which the IC50 was determined as 10 nM.

Take `CNCC(=O)N1CCc2cc(OC)c(Nc3ncc(Cl)c(-c4cnn5ccccc45)n3)cc21` [Example 156, 1-[6-[(5-chloro-4-pyrazolo[1,5-a]pyridin-3-yl-pyrimidin-2-yl)amino]-5-methoxy-indolin-1-yl]-2-(methylamino)ethanone]: the IC50 is 4 nM.

As for `COc1cc(N2CCN(C(=O)[C@@H]3CCC(=O)N3)CC2)ccc1Nc1ncc(Cl)c(-c2cnc3ccccn23)n1` [Example 25.1A, (5S)-5-[4-[4-[(5-chloro-4-imidazo[1,2-a]pyridin-3-yl-pyrimidin-2-yl)amino]-3-methoxy-phenyl]piperazine-1-carbonyl]pyrrolidin-2-one], the IC50 was 8 nM.

Take `COc1cc(C2CCN(C(C)=O)C(C)C2)ccc1Nc1ncc(Cl)c(-c2cnc3ccccn23)n1` (centres unmarked) [Example 59.1, 1-[4-[4-[(5-chloro-4-imidazo[1,2-a]pyridin-3-yl-pyrimidin-2-yl)amino]-3-methoxy-phenyl]-2-methyl-1-piperidyl]ethanone]: the IC50 worked out at 17 nM.

For `COc1ccc(N2CCN(C(=O)CN(C)C)CC2)cc1Nc1ncc(Cl)c(-c2cnn3ccccc23)n1` [Example 152, 1-[4-[3-[(5-chloro-4-pyrazolo[1,5-a]pyridin-3-yl-pyrimidin-2-yl)amino]-4-methoxy-phenyl]piperazin-1-yl]-2-(dimethylamino)ethanone], the IC50 worked out at 25 nM.

Consider `CNC(=O)C1CCN(c2ccc(Nc3ncc(Cl)c(-c4cnc5c(F)cccn45)n3)c(OC)c2)CC1` [Example 222, 1-[4-[[5-chloro-4-(8-fluoroimidazo[1,2-a]pyridin-3-yl)pyrimidin-2-yl]amino]-3-methoxy-phenyl]-N-methyl-piperidine-4-carboxamide], for which the IC50 was determined as 3 nM.

Turning to `CC(=O)N1CCN(c2cccc(Nc3ncc(Cl)c(-c4cnc5ccccn45)n3)c2C)CC1` [Example 3.37, 1-[4-[3-[(5-chloro-4-imidazo[1,2-a]pyridin-3-yl-pyrimidin-2-yl)amino]-2-methyl-phenyl]piperazin-1-yl]ethanone], the half-maximal inhibitory concentration (IC50) came out at 12 nM.

As to `COc1cc(C(=O)N(C)CCO)ccc1Nc1ncc(Cl)c(-c2cnc3ccccn23)n1` [Example 33, 4-[(5-chloro-4-imidazo[1,2-a]pyridin-3-yl-pyrimidin-2-yl)amino]-N-(2-hydroxyethyl)-3-methoxy-N-methyl-benzamide], the IC50 turned out to be 57 nM.

On to `COc1cc(N2CCCOCC2)ccc1Nc1ncc(Cl)c(-c2cnc3ccccn23)n1` [Example 3.48, 5-chloro-4-imidazo[1,2-a]pyridin-3-yl-N-[2-methoxy-4-(1,4-oxazepan-4-yl)phenyl]pyrimidin-2-amine], for which the IC50 is 25 nM.

For the molecule `COc1cc(N2CCN(C(=O)CN3CCOCC3)CC2)ccc1Nc1ncc(Cl)c(-c2cnc3ccccn23)n1` [Example 275, 1-[4-[4-[(5-chloro-4-imidazo[1,2-a]pyridin-3-yl-pyrimidin-2-yl)amino]-3-methoxy-phenyl]piperazin-1-yl]-2-morpholino-ethanone], the IC50 was 9 nM.

In the case of `COc1cc(C2CCOCC2)ccc1Nc1ncc(F)c(-c2cnc3ccccn23)n1` [Example 113, 5-fluoro-4-imidazo[1,2-a]pyridin-3-yl-N-(2-methoxy-4-tetrahydropyran-4-yl-phenyl)pyrimidin-2-amine], the half-inhibitory concentration (IC50) amounted to 33 nM.

The values above are taken from patent US20100105655A1, “NOVEL COMPOUNDS 515” (ASTRAZENECA AB, priority 2008, published 2010).
